# Laboratory results taken from paper PMC10847213 (Clinical Pharmacokinetics, 2023).
# Entries after “also recorded” stand apart in the source; their conditions may differ. Read-outs that look alike come from different tables or passages of the source.
# Assays:
# P-glycoprotein (P-gp) [1] = target: P-glycoprotein (P-gp) (Homo sapiens, UniProt P08183); assay: Effect of multiple-dose lorlatinib on the pharmacokinetics of fexofenadine; type: in vivo; settings: lorlatinib 100 mg QD at steady state; probe fexofenadine
# Sequence of P-glycoprotein (P-gp) (Homo sapiens, UniProt P08183) (P08183 whole entry): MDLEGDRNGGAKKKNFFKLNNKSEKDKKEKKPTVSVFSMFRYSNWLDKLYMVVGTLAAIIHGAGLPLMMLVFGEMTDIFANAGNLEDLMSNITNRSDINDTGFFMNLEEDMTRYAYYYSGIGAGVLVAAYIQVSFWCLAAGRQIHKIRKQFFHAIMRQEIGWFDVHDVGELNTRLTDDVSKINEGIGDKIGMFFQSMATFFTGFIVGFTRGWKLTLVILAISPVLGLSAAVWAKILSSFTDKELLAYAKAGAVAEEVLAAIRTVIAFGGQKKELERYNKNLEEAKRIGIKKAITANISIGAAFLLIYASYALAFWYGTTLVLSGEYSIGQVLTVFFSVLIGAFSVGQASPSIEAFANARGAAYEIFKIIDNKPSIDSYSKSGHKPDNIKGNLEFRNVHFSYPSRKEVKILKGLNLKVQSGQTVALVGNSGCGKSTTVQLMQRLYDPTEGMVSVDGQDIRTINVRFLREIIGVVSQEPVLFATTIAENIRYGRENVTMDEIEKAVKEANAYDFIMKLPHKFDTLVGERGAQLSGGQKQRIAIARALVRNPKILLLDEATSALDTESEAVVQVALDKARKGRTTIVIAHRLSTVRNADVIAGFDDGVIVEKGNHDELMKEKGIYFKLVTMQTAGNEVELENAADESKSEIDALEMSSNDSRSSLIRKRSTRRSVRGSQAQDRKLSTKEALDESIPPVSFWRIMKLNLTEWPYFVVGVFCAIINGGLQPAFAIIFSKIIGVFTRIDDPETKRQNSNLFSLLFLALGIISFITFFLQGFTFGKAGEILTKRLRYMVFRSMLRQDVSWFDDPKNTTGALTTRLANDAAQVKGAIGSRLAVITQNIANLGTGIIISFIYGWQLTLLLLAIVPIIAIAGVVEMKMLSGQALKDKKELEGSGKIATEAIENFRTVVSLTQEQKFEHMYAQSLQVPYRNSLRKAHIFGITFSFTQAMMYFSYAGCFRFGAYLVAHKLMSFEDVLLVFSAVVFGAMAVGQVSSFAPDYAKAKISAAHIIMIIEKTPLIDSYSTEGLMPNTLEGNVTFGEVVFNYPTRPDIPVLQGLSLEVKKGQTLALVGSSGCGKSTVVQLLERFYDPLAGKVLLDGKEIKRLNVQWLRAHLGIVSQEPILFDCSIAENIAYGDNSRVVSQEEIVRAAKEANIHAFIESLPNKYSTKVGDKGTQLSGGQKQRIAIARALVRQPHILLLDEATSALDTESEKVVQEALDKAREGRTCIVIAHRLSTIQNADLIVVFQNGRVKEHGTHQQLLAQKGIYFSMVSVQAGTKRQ
# CYP2C9 [2] = assay: Effect of multiple-dose lorlatinib on the pharmacokinetics of tolbutamide; type: in vivo, human; settings: lorlatinib 100 mg QD at steady state; probe tolbutamide
# UGT = assay: Effect of multiple-dose lorlatinib on the pharmacokinetics of acetaminophen; type: in vivo, human
# bacterial assay = settings: in vitro bacterial assay; cited from earlier work
# CYP2D6 = settings: in vitro; cited from earlier work
# CYP3A4/5 [3] = settings: lorlatinib with modafinil; cited from earlier work
# CYP3A4/5 [4] = settings: lorlatinib with itraconazole; cited from earlier work
# [5] = after oral administration; cited from earlier work
# CYP2C9 [6] = settings: in vitro; cited from earlier work
# CYP3A4/5 [7] = settings: cited from earlier work
# CYP1A2 = settings: in vitro; cited from earlier work
# CYP2B6 [8] = assay: Effect of multiple-dose lorlatinib on the pharmacokinetics of bupropion; type: in vivo, human
# CYP2B6 [9] = settings: in vitro; cited from earlier work
# bone marrow of rats = settings: cited from earlier work
# CYP3A4/5 [10] = settings: cited from earlier work; remark: listed apart in the source
# CYP2C19 = settings: in vitro; cited from earlier work
# [11] = tested on: human pregnane X receptor (PXR); settings: cited from earlier work
# [12] = tested on: human lymphoblastoid TK6 cells; settings: cited from earlier work
# CYP3A4/5 [13] = settings: cited from earlier work; remark: listed apart in the source
# P-glycoprotein (P-gp) [14] = settings: MDCK II-MDR1 cells, substrate digoxin; cited from earlier work
# CYP2C8 = settings: in vitro; cited from earlier work
# plasma proteins = settings: cited from earlier work
# [15] = acetaminophen with lorlatinib 100 mg QD vs acetaminophen alone
# [16] = single oral 2-mg dose of midazolam with lorlatinib 150 mg QD
compound,measurement,setting,value
"C[C@H]1Oc2cc(cnc2N)-c2c(nn(C)c2C#N)CN(C)C(=O)c2ccc(F)cc21 [Lorlatinib, (10R)-7-amino-12-fluoro-2,10,16-trimethyl-15-oxo-10,15,16,17-tetrahydro-2H-8,4-(metheno)pyrazolo[4,3-h][2,5,11]-benzoxadiazacyclotetradecine-3-carbonitrile]","Inducer classification, P-gp",P-glycoprotein (P-gp) [1],moderate (≥ 50% to < 80%)
same,"Inducer classification, CYP2C9",CYP2C9 [2],weak (≥ 20% to < 50%)
same,"Inducer classification, UGT","UGT; lorlatinib 100 mg QD at steady state, probe acetaminophen",weak (≥ 20% to < 50%)
same,Mutagenicity,bacterial assay,not mutagenic
same,Inhibition of CYP2D6,CYP2D6,do not inhibit
same,Reduction in AUC∞,CYP3A4/5 [3],23%
same,Reduction in Cmax,CYP3A4/5 [3],22%
same,Increase in AUC∞,CYP3A4/5 [4],42%
same,Increase in Cmax,CYP3A4/5 [4],24%
same,Bioavailability,[5],81%
same,Inhibition of CYP2C9,CYP2C9 [6],do not inhibit
same,"Inducer classification, CYP3A4/5","CYP3A4/5 [7]; after multiple dosing, probe midazolam",moderate (≥ 50% to < 80%)
same,Inhibition of CYP1A2,CYP1A2,do not inhibit
same,"Inducer classification, CYP2B6","CYP2B6 [8]; lorlatinib 100 mg QD at steady state, probe bupropion",weak (≥ 20% to < 50%)
same,Inhibition of CYP2B6,CYP2B6 [9],do not inhibit
same,Aneugenicity in vivo,bone marrow of rats,aneugenic
same,Effect on CYP3A4/5,CYP3A4/5 [10],time-dependent inhibitor and inducer
same,Inhibition of CYP2C19,CYP2C19,do not inhibit
same,PXR activation,[11],activate PXR
same,Aneugenicity in vitro,[12],aneugenic
same,Transaminase / liver enzyme levels,CYP3A4/5 [13]; coadministration of lorlatinib with rifampin,elevated liver enzyme levels; also recorded: rapid elevations in transaminase values
same,Reduction in Cmax,CYP3A4/5 [13]; lorlatinib with rifampin,76%
same,Reduction in mean AUC∞,CYP3A4/5 [13]; lorlatinib with rifampin,85%
same,Inhibition of P-gp efflux,P-glycoprotein (P-gp) [14],inhibit
same,Inhibition of CYP2C8,CYP2C8,do not inhibit
same,Binding to plasma proteins,plasma proteins,66%
"CC(=O)Nc1ccc(O)cc1 [Acetaminophen, acetaminophen]",Decrease in AUC∞,UGT; [15],45%
same,Decrease in Cmax,UGT; [15],28%
Cc1ncc2n1-c1ccc(Cl)cc1C(c1ccccc1F)=NC2 [midazolam],Decrease in AUC∞,CYP3A4/5 [7]; [16],64%
same,Decrease in Cmax,CYP3A4/5 [7]; [16],50%
"CC(NC(C)(C)C)C(=O)c1cccc(Cl)c1 (stereo not shown) [Bupropion, bupropion]",Decrease in Cmax,CYP2B6 [8]; bupropion with lorlatinib 100 mg QD vs bupropion alone,27%
